Laboratory results taken from US11118227B2, “Methods of identifying agents having neuroprotective or anti-oxidant activity for regulating mitochondrial function” (THE ROYAL VETERINARY COLLEGE, priority 2015, dated 2021).
Entries after “also recorded” stand apart in the source; their conditions may differ.

Tests used:
TSPO [1] = test: Immunofluorescence and immunoblot of TSPO in SHY-5Y cells treated with PD toxins; format: cell-based
Source text: a. Representative immunofluorescence of TSPO in SHY-5Y Cells. Panels b and c: Immunoblot analysis of TSPO expression pattern and ATPB5 in SHY-5Y Cells treated with MPP^+ and 6-OHD.

[2] = target: T1, human Keap1 Kelch protein (Homo sapiens, UniProt Q14145); test: Biochemical experiments on the Keap1-Nrf2 protein-protein interaction with human Keap1 Kelch protein
T1 construct: human Keap1 Kelch protein
T1 sequence (Q14145 321-609 limits assumed): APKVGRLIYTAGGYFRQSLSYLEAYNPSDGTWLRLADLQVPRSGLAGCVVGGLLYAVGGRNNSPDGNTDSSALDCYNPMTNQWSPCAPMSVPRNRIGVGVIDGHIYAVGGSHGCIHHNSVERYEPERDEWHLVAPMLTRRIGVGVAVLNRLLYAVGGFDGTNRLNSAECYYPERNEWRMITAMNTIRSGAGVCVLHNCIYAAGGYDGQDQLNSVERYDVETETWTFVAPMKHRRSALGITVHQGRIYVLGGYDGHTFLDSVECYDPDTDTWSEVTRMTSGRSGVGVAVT
Protocol: To confirm the mode of action of PMI, a series of biochemical experiments were conducted with human Keap1 Kelch protein.

MEF cells [3] = test: Western blot of mitochondrial protein levels (MTCO-1, β-subunit) in MEF cells; format: cell-based, mouse; conditions: 24 h; for mitochondrial network / key mitochondrial protein levels by western blot: vs untreated cells; for PMI (Nrf2)-induced reduction of mitochondrial protein levels, on co-administration of sulforaphane: 10 μM PMI & 1 μM sulforaphane
Protocol: [β-actin is shown as a loading control.
B-actin is shown as a loading control.
(§1) B-actin is shown as a loading control. […].
(§2) (A) Western blot to compare β-subunit, MTCO-1 and TSPO levels in MEFs treated with either DMSO vehicle control, or sulforaphane (1 μM), or PMI (10 μM) either with or without co-administration of UO126 (10 μM) for 24 h. B-actin is shown as a loading control.

MEF cells [4] = test: Confocal imaging of colocalisation of mitochondria and LC-3 in MEF cells; format: cell-based, mouse; conditions: 24 hr; for mitochondrial LC3 colocalisation (mitophagy): 1 μM sulforaphane or 10 μM PMI, FIG. 2D
Protocol: (§3) (D) Representative images of LC3 localization in MEF cells treated with DMSO vehicle control, or 1 μM sulforaphane and/or 10 μM PMI for 24 hr. Scale bar represents 10 μm. A magnification of the merge images is shown in areas demarcated by the white box.
To investigate the effects of sulforaphane in mitophagy, we examined the colocalisation of mitochondria and LC-3 in MEF cells using high-resolution confocal imaging (FIG. 2D).

MEF cells [5] = test: Western blot of mitochondrial protein ubiquitination in mitochondrial fractions of MEF cells; format: cell-based, mouse; conditions: 24 h, FIG. 3B
Source text: (B) Western blot of mitochondrial fractions, highlighting mitochondrial ubiquitination in control or sulforaphane and/or PMI-treated MEF cells. B-subunit is shown as a loading control; n=2.
(§4) The levels and localisation of p62 in MEF cells were then examined by immunoblotting (FIG. 3A).

PARK2 [6] = test: Western blot of PARK2 in mitochondrial fractions of MEF cells (basal conditions); format: cell-based, mouse; conditions: 24 h; for levels of PARK2 in mitochondrial fractions: basal, vs vehicle control, FIG. 4A-B
Source text: We therefore examined the ability of PARK2 to translocate to mitochondria either under basal conditions or after Carbonyl cyanide-4-(trifluoromethoxy)phenylhydrazone (FCCP an ionophore) treatment.

PARK2 [7] = test: Immunocytochemistry of FCCP-induced PARK2 translocation in MEF cells; format: cell-based, mouse; conditions: 24 hr treatment then FCCP (20 μM) 4 hr, vs vehicle control, FIG. 4E
Protocol: as §3, with “(E)” for “(D)”, “PARK2” for “LC3”, “control” for “control,”, “24 hr, before and after treatment with FCCP (20 μM) for 4” for “24”

PARK2 [8] = test: Live imaging of YFP-PARK2 translocation in HeLa cells co-transfected with mt-RFP and YFP-PARK2; format: cell-based; conditions: for time of FCCP treatment to almost complete co-localisation of PARK2 in mitochondria: YFP-PARK2; for time of FCCP treatment at which PARK2 translocation was initiated: YFP-PARK2, pre- or co-treated
HeLa cells = test: Western blot of mitochondrial proteins (mitophagy) in HeLa cells; format: cell-based; conditions: HeLa cells (PARK2 null), after 7 h and 24 h
Source text: as §1

TSPO [9] = test: Immunoblotting of TSPO levels in MEF cells; format: cell-based, mouse; conditions: 24 h, 1 μM sulforaphane or 10 μM PMI, vs control
Protocol: as §2
(B) Graph show MTCO-1:β-actin (B), β-subunit:β-actin (C), TSPO:β-actin ratio band density analysis, n=3.
(§5) TSPO has been recently described as a modulator of mitophagy (Gatliff et al., 2014). We were therefore interested to examine if PMI and sulforaphane alter its accumulation on Mitochondria as well as its transcription levels FIG. 6E.

TSPO mRNA = test: RT-PCR of TSPO mRNA levels in MEF cells; format: cell-based, mouse; conditions: 24 h, PMI (10 μM) or sulforaphane (1 μM), vs control
Protocol: (D) RT-PCR analysis for estimation of TSPO mRNA levels in MEFs following treatment with DMSO, PMI (10 μM) and/or sulforaphane (1 μM). Values are presented as arbitrary units normalized to 18s RNA levels for each sample, n≥3.
as §5

TSPO [10] = test: TSPO expression in PARK2 null cells (HeLa); format: cell-based
P62 [11] = conditions: East et al 2014, cited from earlier work
p62 [12] = conditions: MEF cells, 24 h, 1 μM sulforaphane
Protocol: (A) Representative images of P62 localization in MEF cells treated with DMSO vehicle control, or 1 μM sulforaphane and/or 10 μM PMI for 24 hr. Scale bar represents 10 μm. A magnification of the merge images is shown in areas demarcated by the white box. […].
as §4

MEF cells [13] = conditions: 24 h, 1 μM sulforaphane or 10 μM PMI, previously reported work (East et al., 2014), FIG. 1C; cited from earlier work

SMILES | TSPO expression (TSPO [1]) | mitochondrial network / key mitochondrial protein levels by western blot (MEF cells [3]) | mitochondrial LC3 colocalisation (mitophagy) (MEF cells [4]) | levels of PARK2 in mitochondrial fractions (PARK2 [6]) | FCCP-induced PARK2 translocation (PARK2 [7]) | time of FCCP treatment to almost complete co-localisation of PARK2 in mitochondria (PARK2 [8]) | time of FCCP treatment at which PARK2 translocation was initiated (PARK2 [8]) [min] | induction of mitophagy (mitochondrial protein levels) (HeLa cells) | levels of TSPO by immunoblotting (TSPO [9]) | levels of TSPO mRNA (RT-PCR) (TSPO mRNA) | expression of TSPO (TSPO [10]) | also measured
NCCc1cc(O)c(O)cc1O [6-HOD] | upregulate TSPO | – | – | – | – | – | – | – | – | – | – | –
C[n+]1ccc(-c2ccccc2)cc1 [MPP^+] | upregulate TSPO | – | – | – | – | – | – | – | – | – | – | –
O=[N+]([O-])c1cccc(-c2cn(-c3cccc(I)c3)nn2)c1 [PMI] | – | reduced mitochondrial network | significantly increased compared to untreated cells | no statistically significant differences | no statistically significant differences | approximately 60 mins | 30 | induction of mitophagy was observed | reduction in the levels of TSPO; also recorded: decreases TSPO levels in MEFs | reduced compared to control | but not in the cells in which PARK2 is not expressioned such as HeLa cells | degradation of the Keap1 Kelch protein [2]: without causing a degradation of the Keap1 Kelch protein; disruption of the protein-protein interaction between Keap1 and Nrf2 [2]: able to disrupt the protein-protein interaction between Keap1 and Nrf2 in a dose-dependent manner; ubiquitination in mitochondrial fractions (MEF cells [5]; vs vehicle control): increased ubiquitination; sulforaphane-reduced PARK2 activity, on addition of PMI (PARK2 [6]; sulforaphane plus PMI): did not alter the reduced activity of PARK2; P62 expression (P62 [11]): upregulates P62 via stabilization of Nrf2; mitophagy (P62 [11]): promotes mitophagy; toxic effects on cells (P62 [11]; at the concentrations used in the assays): does not mediate any apparent toxic effects on cells
C[S+]([O-])CCCCN=C=S (stereo not shown) [sulforaphane] | – | no significant differences | no induction of mitophagy was observed | reduced compared to the vehicle control | no statistically significant differences | approximately 60 mins | 30 | induction of mitophagy was observed | no significant differences were observed | statistically significant increase | does not affect the expression of TSPO | PMI (Nrf2)-induced reduction of mitochondrial protein levels, on co-administration of sulforaphane (MEF cells [3]): significant normalization of the mitochondrial protein levels; PMI (Nrf2)-induced reduction of mitochondrial protein levels, on co-administration of sulforaphane (MEF cells [3]; listed as Sulforaphane): inhibits the Nrf2-induced reduction of mitochondrial protein levels; mitochondrial LC3 colocalisation attributed to PMI, on addition of sulforaphane (MEF cells [4]; 10 μM PMI plus 1 μM sulforaphane): abolished; levels of p62 in the cytosol (p62 [12]): increased levels of p62 in the cytosol compared to control; translocation of p62 to mitochondria (p62 [12]): impaired and significantly reduced compared to basal conditions; PMI-induced mitochondrial ubiquitination, on co-administration of sulforaphane (MEF cells [5]; PMI plus sulforaphane): abolished the effect attributed to PMI; levels of TSPO by immunoblotting (TSPO [9]; listed as Sulforaphane): does not affect the expression of TSPO; mitochondrial proteins (MTCO-1) by Western blot (MEF cells [13]): an increase in mitochondrial proteins
